Measured values published in ChEMBL document CHEMBL5154738, “Design, synthesis and structural-activity relationship studies of phanginin A derivatives for regulating SIK1-cAMP/CREB signaling to suppress hepatic gluconeogenesis” (Eur J Med Chem, 2022).

How the values were obtained:
[1] = Cytotoxicity against C57BL/6J mouse primary hepatocytes assessed as cell viability at 20 uM incubated for 24 hrs by MTT assay relative to control; assay type: toxicity, cell-based, Hepatocyte; conditions: read-out: Activity
[2] = Cytotoxicity against C57BL/6J mouse primary hepatocytes assessed as cell viability at 50 uM incubated for 24 hrs by MTT assay relative to control; assay type: toxicity, cell-based, Hepatocyte; conditions: read-out: Activity
[3] = Inhibition of gluconeogenesis in C57BL/6J mouse primary hepatocytes assessed as inhibition of glucagon-stimulated glucose production at 2.5 uM preincubated for 1.5 hrs followed by lactate and pyruvate addition and later stimulated with glucagon for 4 hrs; assay type: functional; conditions: Hepatocyte, time 5.5 hrs
[4] = Cytotoxicity against C57BL/6J mouse primary hepatocytes assessed as cell viability at 100 uM incubated for 24 hrs by MTT assay relative to control; assay type: toxicity, cell-based, Hepatocyte; conditions: read-out: Activity
[5] = Inhibition of gluconeogenesis in C57BL/6J mouse primary hepatocytes assessed as inhibition of glucagon-stimulated glucose production at 5 uM preincubated for 1.5 hrs followed by lactate and pyruvate addition and later stimulated with glucagon for 4 hrs; assay type: functional; conditions: Hepatocyte, time 5.5 hrs
[6] = Cytotoxicity against C57BL/6J mouse primary hepatocytes assessed as cell viability at 10 uM incubated for 24 hrs by MTT assay relative to control; assay type: toxicity, cell-based, Hepatocyte; conditions: read-out: Activity
[7] = Inhibition of gluconeogenesis in C57BL/6J mouse primary hepatocytes assessed as inhibition of glucagon-stimulated glucose production at 10 uM preincubated for 1.5 hrs followed by lactate and pyruvate addition and later stimulated with glucagon for 4 hrs; assay type: functional; conditions: Hepatocyte, time 5.5 hrs
[8] = Cytotoxicity against C57BL/6J mouse primary hepatocytes assessed as cell viability at 200 uM incubated for 24 hrs by MTT assay relative to control; assay type: toxicity, cell-based, Hepatocyte; conditions: read-out: Activity
[9] = molecular target: Serine/threonine-protein kinase SIK1 (Mus musculus) (UniProt Q60670); assay: Activation of SIK1 in C57BL/6J mouse primary hepatocytes assessed as increase in SIK1 phosphorylation at Thr182 residue measured after 2 hrs by western blot analysis; assay type: cell-based; conditions: Primary hepatocyte, filed as activator, dose 2.5-10 µM, DDE = dose-dependent effect
Chain of Serine/threonine-protein kinase SIK1 (Mus musculus) (Q60670 whole entry): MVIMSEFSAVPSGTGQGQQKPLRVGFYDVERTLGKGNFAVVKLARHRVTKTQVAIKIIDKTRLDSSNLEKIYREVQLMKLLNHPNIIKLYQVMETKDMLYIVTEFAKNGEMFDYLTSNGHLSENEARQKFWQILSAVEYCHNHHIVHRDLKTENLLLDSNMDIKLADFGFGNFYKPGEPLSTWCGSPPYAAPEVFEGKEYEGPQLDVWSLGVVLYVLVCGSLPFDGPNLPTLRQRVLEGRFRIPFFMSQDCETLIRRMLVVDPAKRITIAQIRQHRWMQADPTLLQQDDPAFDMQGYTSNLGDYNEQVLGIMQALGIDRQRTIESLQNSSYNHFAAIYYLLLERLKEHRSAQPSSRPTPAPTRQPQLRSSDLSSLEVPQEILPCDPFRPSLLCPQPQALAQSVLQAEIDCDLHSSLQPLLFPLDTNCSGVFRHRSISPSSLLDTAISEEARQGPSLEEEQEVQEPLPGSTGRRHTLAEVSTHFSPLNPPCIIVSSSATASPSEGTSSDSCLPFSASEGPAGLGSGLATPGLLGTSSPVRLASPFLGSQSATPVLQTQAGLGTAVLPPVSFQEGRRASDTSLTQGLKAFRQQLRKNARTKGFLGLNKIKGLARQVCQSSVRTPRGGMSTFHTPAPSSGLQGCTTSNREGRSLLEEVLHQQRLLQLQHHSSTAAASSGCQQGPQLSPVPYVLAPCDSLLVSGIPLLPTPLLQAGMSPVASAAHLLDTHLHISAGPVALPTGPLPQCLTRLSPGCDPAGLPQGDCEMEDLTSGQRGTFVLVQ

SMILES | viability at 24 h, 20 µM [1] [%] | viability at 24 h, 50 µM [2] [%] | inhibition at 2.5 µM [3] [%] | viability at 24 h, 100 µM [4] [%] | inhibition at 5 µM [5] [%] | viability at 24 h, 10 µM [6] [%] | inhibition at 10 µM [7] [%] | viability at 24 h, 200 µM [8] [%] | Activity [9]
CC(=O)OC[C@@]12CCCC3([C@H](OCCO)OC1)[C@H]2CC[C@H]1[C@@H](C)c2ccoc2C[C@@H]13 | 78.1 | 85 | -2.1 | 92.4 | 32.1 | 83.2 | 82.7 | 14.2 | –
COC(=O)[C@@]12CCC[C@]3(COC1)[C@H]1Cc4occc4[C@H](C)[C@@H]1CC[C@@H]23 | – | – | – | – | – | – | 52 | – | –
C[C@H]1c2ccoc2C[C@H]2[C@H]1CC[C@@H]1C23CCC[C@]1(C(=O)O)CO[C@H]3OCCO | – | – | – | – | – | – | 24.3 | – | –
COC(=O)[C@@]12CCC[C@]3(C(=O)OC1)[C@H]1Cc4occc4[C@H](C)[C@@H]1CC[C@@H]23 | – | – | – | – | – | – | 41.2 | – | –
COC(=O)[C@@]12CCCC3([C@H](OCCCO)OC1)[C@H]2CC[C@H]1[C@@H](C)c2ccoc2C[C@@H]13 | 20.6 | 14.1 | 32.7 | 12 | 81.8 | 49.7 | 97.5 | 9.9 | –
COC(=O)[C@]12CCCC3([C@H]1CC[C@H]1[C@@H](C)c4ccoc4C[C@@H]13)[C@H](SCCO)OC2 | 97.9 | 74.1 | 13.1 | 10.2 | 44.4 | 105 | 67.3 | 9.2 | –
COC(=O)[C@]12CCC[C@]3(COC1)[C@H]1C[C@H]4OCC[C@H]4[C@H](C)[C@@H]1CC[C@@H]23 | – | – | – | – | – | – | 36.3 | – | –
COC(=O)[C@@]12CCCC3([C@H](OCCOCCOCCO)OC1)[C@H]2CC[C@H]1[C@@H](C)c2ccoc2C[C@@H]13 | 23.4 | 12.1 | 47.2 | 10.3 | 97.4 | 40.5 | 97.1 | 8.1 | –
COC(=O)[C@@]12CCCC3([C@H](OCCOCCO)OC1)[C@H]2CC[C@H]1[C@@H](C)c2ccoc2C[C@@H]13 | 17.4 | 12 | 67.3 | 10.6 | 93.3 | 28.3 | 95.6 | 7.9 | Dde
COC(=O)[C@@]12CCCC3([C@H](OCCOCCOCCOCCO)OC1)[C@H]2CC[C@H]1[C@@H](C)c2ccoc2C[C@@H]13 | 25.4 | 12.9 | 63.1 | 11 | 87.8 | 48.9 | 111 | 7.9 | Dde
COC(=O)[C@@]12CCCC3([C@H](O)OC1)[C@H]2CC[C@H]1[C@@H](C)[C@@H]2CCO[C@@H]2C[C@@H]13 | – | – | – | – | – | – | 41.1 | – | –
COC(=O)[C@@]12CCCC3([C@H](OCCCCCO)OC1)[C@H]2CC[C@H]1[C@@H](C)c2ccoc2C[C@@H]13 | 33.3 | 17.2 | 32.2 | 19.3 | 82.7 | 70.1 | 89.2 | 18.7 | –
CC(=O)OCCO[C@@H]1OC[C@@]2(CO)CCCC13[C@H]2CC[C@H]1[C@@H](C)c2ccoc2C[C@@H]13 | 84.1 | 77.7 | 25.1 | 79.9 | 54.4 | 81.7 | 77.3 | 14.1 | –
CNC(=O)[C@@]12CCCC3([C@H](OCCO)OC1)[C@H]2CC[C@H]1[C@@H](C)c2ccoc2C[C@@H]13 | 84.7 | 85.8 | 9.6 | 82.6 | 34.2 | 82.9 | 56.6 | 76.3 | –
CCNC(=O)[C@@]12CCCC3([C@H](OCCO)OC1)[C@H]2CC[C@H]1[C@@H](C)c2ccoc2C[C@@H]13 | 84.1 | 90 | 21.8 | 73.4 | 52.8 | 84.2 | 66.1 | 47.5 | –
COC(=O)[C@@]12CCCC3([C@H](OCCCCCCO)OC1)[C@H]2CC[C@H]1[C@@H](C)c2ccoc2C[C@@H]13 | 81.5 | 28.6 | 33.5 | 11.3 | 67.2 | 89.3 | 81.8 | 11.4 | –
CCO[C@@H]1OC[C@@]2(C(=O)OC)CCCC13[C@H]2CC[C@H]1[C@@H](C)c2ccoc2C[C@@H]13 | – | – | – | – | – | – | 24.9 | – | –
COC(=O)[C@@]12CCCC3([C@H](OCCO)OC1)[C@H]2CC[C@H]1[C@@H](C)[C@@H]2CCO[C@@H]2C[C@@H]13 | – | – | – | – | – | – | 15.9 | – | –
C[C@H]1c2ccoc2C[C@H]2[C@H]1CC[C@@H]1C23CCC[C@]1(CO)CO[C@H]3OCCO | 69.6 | 63.9 | 41.4 | 42.2 | 69.4 | 74.8 | 71.1 | 13.2 | –
COC(=O)[C@@]12CCCC3([C@H](OC)OC1)[C@H]2CC[C@H]1[C@@H](C)c2ccoc2C[C@@H]13 | – | – | – | – | – | – | 18.8 | – | –
COC(=O)[C@@]12CCCC3([C@H](OCCCCO)OC1)[C@H]2CC[C@H]1[C@@H](C)c2ccoc2C[C@@H]13 | 27.5 | 19.8 | 47 | 18.7 | 95.8 | 54 | 92.7 | 17.6 | –
COC(=O)[C@@]12CCCC3([C@H](OCCO)OC1)[C@H]2CC[C@H]1[C@@H](C)C2=CC(=O)O[C@]2(O)C[C@@H]13 | – | – | – | – | – | – | -12.3 | – | –
CCCCO[C@@H]1OC[C@@]2(C(=O)OC)CCCC13[C@H]2CC[C@H]1[C@@H](C)c2ccoc2C[C@@H]13 | – | – | – | – | – | – | 36.2 | – | –
CCCNC(=O)[C@@]12CCCC3([C@H](OCCO)OC1)[C@H]2CC[C@H]1[C@@H](C)c2ccoc2C[C@@H]13 | 77.5 | 70.5 | 21.2 | 57.4 | 45 | 84.3 | 62.1 | 27.5 | –
